Assay results reported in PubChem BioAssay (NCI).
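Where inhibition never reached the appropriate level, the endpoint shown equals the highest concentration tested. Otherwise, values were interpolated linearly from a five-concentration, 48-hour dose response in 96-well plates. GI50 is the concentration that inhibits growth by half. Definition used: TGI = concentration required for complete inhibition of growth.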

What was measured:
Test in all cases: NCI tumour cell line growth inhibition, 48 h
MDA-MB-468 breast = test system: MDA-MB-468 breast
UO-31 renal = test system: UO-31 renal
A498 renal = test system: A498 renal
HCT-116 colon = test system: HCT-116 colon
UACC-62 melanoma = test system: UACC-62 melanoma
SK-MEL-5 melanoma = test system: SK-MEL-5 melanoma
HOP-92 NSCLC = test system: HOP-92 NSCLC
OVCAR-3 ovarian = test system: OVCAR-3 ovarian
EKVX NSCLC = test system: EKVX NSCLC
MDA-MB-435 = test system: MDA-MB-435
SR leukemia = test system: SR leukemia
786-0 renal = test system: 786-0 renal
HCC-2998 colon = test system: HCC-2998 colon
NCI-H226 lung = test system: NCI-H226 lung
SK-MEL-28 melanoma = test system: SK-MEL-28 melanoma
U251 CNS = test system: U251 CNS
SF-539 CNS = test system: SF-539 CNS
SK-MEL-2 melanoma = test system: SK-MEL-2 melanoma
SF-295 CNS = test system: SF-295 CNS
UACC-257 melanoma = test system: UACC-257 melanoma
TK-10 renal = test system: TK-10 renal
OVCAR-8 ovarian = test system: OVCAR-8 ovarian
LOX IMVI melanoma = test system: LOX IMVI melanoma
RPMI-8226 leukemia = test system: RPMI-8226 leukemia
MALME-3M melanoma = test system: MALME-3M melanoma
CAKI-1 renal = test system: CAKI-1 renal
SNB-75 CNS = test system: SNB-75 CNS
DU-145 prostate = test system: DU-145 prostate
NCI-H522 lung = test system: NCI-H522 lung
MDA-MB-231 breast = test system: MDA-MB-231 breast
MCF7 breast = test system: MCF7 breast
NCI-H23 lung = test system: NCI-H23 lung
A549 NSCLC = test system: A549 NSCLC
COLO 205 colon = test system: COLO 205 colon
CCRF-CEM leukemia = test system: CCRF-CEM leukemia
SK-OV-3 ovarian = test system: SK-OV-3 ovarian
OVCAR-5 ovarian = test system: OVCAR-5 ovarian
HT29 colon = test system: HT29 colon
NCI-H460 lung = test system: NCI-H460 lung
SN12C renal = test system: SN12C renal
RXF 393 renal = test system: RXF 393 renal
M14 melanoma = test system: M14 melanoma
HL-60(TB) leukemia = test system: HL-60(TB) leukemia
IGROV1 ovarian = test system: IGROV1 ovarian
BT-549 breast = test system: BT-549 breast
MOLT-4 leukemia = test system: MOLT-4 leukemia
HCT-15 colon = test system: HCT-15 colon
PC-3 prostate = test system: PC-3 prostate
SNB-19 CNS = test system: SNB-19 CNS
OVCAR-4 ovarian = test system: OVCAR-4 ovarian
SF-268 CNS = test system: SF-268 CNS
NCI/ADR-RES ovarian = test system: NCI/ADR-RES ovarian
ACHN renal = test system: ACHN renal
HS 578T breast = test system: HS 578T breast
HOP-62 NSCLC = test system: HOP-62 NSCLC

## Cc1ccc(C2NC(=O)c3ccccc3N2)c(C)c1 (stereo unspecified)
MDA-MB-468 breast
  GI50: 6.4 µM
  TGI: > 100 µM

## CC1=C2C(=C[C@@](C)(COC(=O)c3ccc(S(=O)(=O)F)cc3)[C@@H]2O)C(=O)[C@](C)(O)C12CC2
MDA-MB-468 breast
  GI50: 0.53 µM
  TGI: 2.17 µM

## Cc1cccc2c3c(sc12)C(c1ccc(F)cc1)C(C#N)=C(N)O3 (stereo unspecified)
MDA-MB-468 breast
  GI50: 0.0315 µM
  TGI: 0.551 µM

## COc1ccc(C(=O)c2sc3nc(-c4cccs4)ccc3c2N)cc1OC
MDA-MB-468 breast
  GI50: 1.87 µM
  TGI: > 100 µM

## CC(=O)/C=C/c1ccc(OCc2ccc(Cl)cc2)cc1
MDA-MB-468 breast
  GI50: 161 µM
  TGI: 872 µM

## Cc1nc2ccccc2nc1N=Nc1ccccc1
MDA-MB-468 breast
  GI50: 21 µM
  TGI: > 100 µM

## O=C1/C(=C/c2ccc(O)cc2)COc2ccc(O)c(O)c21
MDA-MB-468 breast
  GI50: 1.99 µM
  TGI: 5.69 µM

## Cn1cc(C2=C(Nc3ccccc3)C(=O)NC2=O)c2ccccc21
MDA-MB-468 breast
  GI50: > 23 µM
  TGI: > 25 µM

## COCCOCCOCc1n(Cc2ccc3ccccc3n2)c2ccccc2[n+]1Cc1ccc2ccccc2n1
MDA-MB-468 breast
  GI50: 0.19 µM
  TGI: 2.25 µM

## COc1ccc(CCN2CCC(CN(C)Cc3cnn(-c4ccccc4)c3)CC2)cc1
MDA-MB-468 breast
  GI50: 4.99 µM
  TGI: 21.3 µM

## COC(=O)C(C(=O)OC)C(Br)C(Br)C(Br)c1ccccc1 (stereo unspecified)
MDA-MB-468 breast
  GI50: 2.06 µM
  TGI: 6.18 µM

## COc1ccc(-c2c3c(nc4n[nH]c(-c5ccc(Cl)cc5)c24)-c2ccccc2C(=O)C3=O)cc1
MDA-MB-468 breast
  GI50: 1.65 µM
  TGI: 3.47 µM

## CCCCCCCCCCCCCC[n+]1ccc(C)cc1
MDA-MB-468 breast
  GI50: 0.207 µM
  TGI: 0.808 µM

## NC1(Cc2ccc(Cl)cc2)CCN(c2ncnc3[nH]ccc23)CC1
MDA-MB-468 breast
  GI50: 1.92 µM
  TGI: 12.8 µM

## O=[N+]([O-])c1cc([N+](=O)[O-])c(Cl)cc1Cl
MDA-MB-468 breast
  GI50: 1.66 µM
  TGI: 3.38 µM

## CN1CCN(c2nc(-c3csc(-c4cccs4)n3)cc3ccccc23)CC1
MDA-MB-468 breast
  GI50: 1.69 µM
  TGI: 3.39 µM

## COc1cc(C)c2sc3ccccc3c(=O)c2c1NCCN(C)C
MDA-MB-468 breast
  GI50: 2.15 µM
  TGI: 5.06 µM

## Cc1[nH]c2cc(F)ccc2c1-c1nc2c3cccnc3c3ncccc3c2[nH]1
MDA-MB-468 breast
  GI50: 0.0273 µM
  TGI: 0.0828 µM

## COc1ccc2c(c1)c(-c1cc(N)n3nc(-c4c[nH]c5ccccc45)cc3n1)cn2C
UO-31 renal
  GI50: 1.61 µM
  TGI: 3.12 µM
MDA-MB-468 breast
  GI50: 1.36 µM
  TGI: 2.69 µM
A498 renal
  GI50: 14 µM
  TGI: 27.6 µM
HCT-116 colon
  GI50: 1.72 µM
  TGI: 3.09 µM
UACC-62 melanoma
  GI50: 1.8 µM
  TGI: 3.2 µM
SK-MEL-5 melanoma
  GI50: 1.68 µM
  TGI: 3.04 µM
HOP-92 NSCLC
  GI50: 1.87 µM
  TGI: 3.86 µM
OVCAR-3 ovarian
  GI50: 2.02 µM
  TGI: 4.28 µM
EKVX NSCLC
  GI50: 1.7 µM
  TGI: 3.63 µM
MDA-MB-435
  GI50: 1.83 µM
  TGI: 3.54 µM
SR leukemia
  GI50: 1.43 µM
  TGI: 6.4 µM
786-0 renal
  GI50: 1.61 µM
  TGI: 3 µM
HCC-2998 colon
  GI50: 1.63 µM
  TGI: 3.04 µM
NCI-H226 lung
  GI50: 2.13 µM
  TGI: 5.11 µM
SK-MEL-28 melanoma
  GI50: 1.73 µM
  TGI: 3.11 µM
U251 CNS
  GI50: 1.64 µM
  TGI: 3.21 µM
SF-539 CNS
  GI50: 1.63 µM
  TGI: 2.98 µM
SK-MEL-2 melanoma
  GI50: 1.86 µM
  TGI: 3.96 µM
SF-295 CNS
  GI50: 1.58 µM
  TGI: 3.01 µM
UACC-257 melanoma
  GI50: 1.84 µM
  TGI: 3.43 µM
TK-10 renal
  GI50: 1.76 µM
  TGI: 3.34 µM
OVCAR-8 ovarian
  GI50: 2.05 µM
  TGI: 4.77 µM
LOX IMVI melanoma
  GI50: 1.68 µM
  TGI: 3.04 µM
RPMI-8226 leukemia
  GI50: 2.37 µM
  TGI: 5.74 µM
MALME-3M melanoma
  GI50: 1.79 µM
  TGI: 3.18 µM
CAKI-1 renal
  GI50: 1.82 µM
  TGI: 3.52 µM
SNB-75 CNS
  GI50: 1.76 µM
  TGI: 3.8 µM
DU-145 prostate
  GI50: 3.29 µM
  TGI: 10.2 µM
NCI-H522 lung
  GI50: 1.78 µM
  TGI: 3.5 µM
MDA-MB-231 breast
  GI50: 2.07 µM
  TGI: 3.65 µM
MCF7 breast
  GI50: 1.68 µM
  TGI: 3.35 µM
NCI-H23 lung
  GI50: 1.72 µM
  TGI: 3.39 µM
A549 NSCLC
  GI50: 1.86 µM
  TGI: 3.7 µM
COLO 205 colon
  GI50: 2.02 µM
  TGI: 3.83 µM
CCRF-CEM leukemia
  GI50: 2.14 µM
  TGI: 5.42 µM
SK-OV-3 ovarian
  GI50: 2.58 µM
  TGI: 6.43 µM
OVCAR-5 ovarian
  GI50: 2.05 µM
  TGI: 4.08 µM
HT29 colon
  GI50: 1.77 µM
  TGI: 3.47 µM
NCI-H460 lung
  GI50: 2.23 µM
  TGI: 5.03 µM
SN12C renal
  GI50: 1.87 µM
  TGI: 3.81 µM
RXF 393 renal
  GI50: 1.5 µM
  TGI: 2.9 µM
M14 melanoma
  GI50: 1.72 µM
  TGI: 3.25 µM
HL-60(TB) leukemia
  GI50: 1.76 µM
  TGI: 3.78 µM
IGROV1 ovarian
  GI50: 2.03 µM
  TGI: 3.88 µM
BT-549 breast
  GI50: 12.8 µM
  TGI: 25.6 µM
MOLT-4 leukemia
  GI50: 2.05 µM
  TGI: 5.73 µM
HCT-15 colon
  GI50: 1.31 µM
  TGI: 2.75 µM
PC-3 prostate
  GI50: 2.56 µM
  TGI: 8.61 µM
SNB-19 CNS
  GI50: 2.61 µM
  TGI: 6.31 µM
OVCAR-4 ovarian
  GI50: 2.42 µM
  TGI: 5.93 µM
SF-268 CNS
  GI50: 2.35 µM
  TGI: 5.48 µM
NCI/ADR-RES ovarian
  GI50: 2.08 µM
  TGI: 5.07 µM
ACHN renal
  GI50: 1.7 µM
  TGI: 3.1 µM
HS 578T breast
  GI50: 3.11 µM
  TGI: 17.6 µM
HOP-62 NSCLC
  GI50: 2.02 µM
  TGI: 3.92 µM

## O=C1c2cccnc2C(=O)c2c1c(C(=O)OCCCN1CCCCC1)c1ccccn21
MDA-MB-468 breast
  GI50: 0.314 µM
  TGI: 14.5 µM

## O=C(N/N=C/c1cccs1)c1[nH]c2ccc(Br)cc2c1-c1ccccc1
MDA-MB-468 breast
  GI50: 0.0881 µM
  TGI: 4.26 µM

## O=C1N(Cc2ccccc2Cl)c2ccccc2C12NN=C(c1cccc(Cl)c1)S2 (stereo unspecified)
MDA-MB-468 breast
  GI50: 1.91 µM
  TGI: 3.77 µM

## NC(CSSCC(N)C(=O)O)C(=O)O (stereo unspecified)
MDA-MB-468 breast
  GI50: > 100 µM
  TGI: > 100 µM

## CN(CCC(=O)/C(=C\c1ccccc1)c1ccc(Cl)cc1)Cc1ccccc1
MDA-MB-468 breast
  GI50: 2.14 µM
  TGI: 5.96 µM

## COc1cc(Cl)cc(-c2nn(-c3cccc(NC(=O)Nc4ccc(Cl)c(Cl)c4)c3)cc2-c2ccncc2)c1
MDA-MB-468 breast
  GI50: 1.74 µM
  TGI: 7.37 µM

## COc1cc2c(c(OC)c1OC)-c1ccc(N=NC(N)=S)c(=O)cc1[C@@H](NC(C)=O)CC2
MDA-MB-468 breast
  GI50: 0.301 µM

## Cc1cc(O)c(C2=NN(c3ccc(S(N)(=O)=O)cc3)C(/C=C/c3ccccc3)C2)cc1Cl (stereo unspecified)
MDA-MB-468 breast
  GI50: 3.94 µM
  TGI: 13.8 µM

## COc1ccc(NC2=C(Cl)C(=O)C(C)=C(C)C2=O)cc1
MDA-MB-468 breast
  GI50: 1.29 µM
  TGI: 2.75 µM

## NC(=O)c1sc(-n2cnc3cc(C(F)(F)F)ccc32)cc1OCc1ccccc1Br
MDA-MB-468 breast
  GI50: > 11.5 µM
  TGI: > 23.4 µM

## CC(C)(C)OC(=O)NCc1cccc(N=C=S)c1
MDA-MB-468 breast
  GI50: 14.8 µM
  TGI: 48.1 µM

## CC(C)C(=O)Nc1ccc(-c2nc(-c3cccc(O)c3)c(-c3ccnc(Br)c3)[nH]2)cc1
MDA-MB-468 breast
  GI50: 0.795 µM
  TGI: 2.74 µM

## Cc1nc2sc(C(=O)c3ccc(Cl)cc3)c(N)c2c(-c2ccccc2Cl)c1C(=O)Nc1ccccc1
MDA-MB-468 breast
  GI50: 17.5 µM
  TGI: 37 µM

## CCCCNc1ccc(Nc2ccccc2)cc1
MDA-MB-468 breast
  GI50: 1.81 µM
  TGI: 9.42 µM

## COc1cnc2c(c1)C(=O)c1c-2n(CCCN2CCC(O)CC2)c(=O)c2cc(Cl)ccc12
MDA-MB-468 breast
  GI50: 0.521 µM
  TGI: 10.8 µM

## CC(=O)O[C@H]1C[C@@H]2OC3C=C(C)CCC3(C)[C@@]1(C)[C@@]21CO1 (stereo partly specified)
MDA-MB-468 breast
  GI50: 0.284 µM
  TGI: 1.57 µM

## Cc1nc2cc(Nc3nc(Nc4ccc(F)cc4)nc(N4CCOCC4)n3)ccc2n1Cc1ccccc1
MDA-MB-468 breast
  GI50: 1.52 µM
  TGI: 4.28 µM

## CCCCCCNCc1cc(C(C)(C)C)cc(CNCCCCCC)c1O
MDA-MB-468 breast
  GI50: 1.59 µM
  TGI: 3.01 µM
